Earlier results as cited in patent US20030035836A1, “Oral controlled release pharmaceutical composition for once-a-day therapy for the treatment and prophylaxis of cardiac and circulatory diseases” (priority 2001, published 2003).

Conditions: oral administration; considerable first pass metabolism

absolute bioavailability: 25%
Compound: COc1ccccc1OCCNCC(O)COc1cccc2[nH]c3ccccc3c12 (racemic) [Carvedilol, 1-(9H-carbazol-4-yloxy)-3-[[2-(2-methoxyphenoxy)ethyl]amino]-2-propanol]
